Assay results taken from patent US5077286A, “Beta-lactam derivatives of the 4-acylcephem sulphone and 3-acylpenam sulphone-type” (Farmitalia Carlo Erba S.r.l., priority 1988, dated 1991).

What was measured:
[1] = Chemical stability at 37° C., 0.05M pH 7.4 phosphate buffer (HPLC, time course of starting material depletion); type: physicochemical; conditions: 0.05m phosphate buffer, 5% DMSO, 10 mM initial conc., read-out: Chemical stability t1/2 (converted)
Experimental: (a) Chemical stability at 37° C., 0.05M pH 7.4 phosphate buffer (5% DMSO as solubilizing vehicle) was determined by following the time course of starting material depletion ([…] kinetics; 10 mM initial conc.) by HPLC analysis (stationary phase Whatman Partisphere 5 C18, 110×4.7 mm i.d., mobile phase A, pH 2.5 0.1M phosphate buffer; mobile phase B, 60:40 phase A/MeCN; UV detection at λ=254 nm;

[2] = target: T1, human leukocyte elastase (HLE) (Homo sapiens, UniProt P08246); assay: HLE-inhibition kinetic parameters (fluorescence, release of 7-amino-4-methylcoumarin from peptide substrate); type: biochemical; conditions: 37° C., 0.027M pH 7.4 phosphate buffer, 1% DMSO, 1% MeCN, NaCl (I=0.15); for Ki: read-out: HLE-inhibition kinetic parameters: Ki^ss (apparent dissociation constant of HLE-inhibitor complex at steady state); for koff: read-out: HLE-inhibition kinetic parameters: Koff (dissociation rate); for kon: read-out: HLE-inhibition kinetic parameters: Kon (rate of formation of the HLE complex)
T1 construct: purchased Calbiochem Lot 702738
T1 sequence (P08246 30-267): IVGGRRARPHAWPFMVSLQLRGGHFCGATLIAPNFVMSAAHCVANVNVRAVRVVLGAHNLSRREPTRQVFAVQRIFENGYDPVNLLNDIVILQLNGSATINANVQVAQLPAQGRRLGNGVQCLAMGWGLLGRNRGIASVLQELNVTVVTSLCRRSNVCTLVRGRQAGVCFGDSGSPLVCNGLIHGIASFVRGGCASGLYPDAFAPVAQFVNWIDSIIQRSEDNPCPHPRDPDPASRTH
Experimental: (b) Kinetic parameters of HLE (Calbiochem. Lot 702738) were determined at 37° C., 0.027M pH 7.4 phosphate buffer, 1% DMSO, 1% MeCN, NaCl (I=0.15), by monitoring the release of 7-amino-4-methylcoumarin (fluorence detection) from N-methoxysuccinyl-alanyl-propyl-valyl-7-amido-4-methylcoumarin as the substrate, according to the equations: [formula] wherein: [P], [I], [S]=product, inhibitor, and substrate concentration
Km=Michaelis constant for the enzyme-substrate pair (independently determined under the same experimental conditions).

With `CO[C@H]1C(=O)N2C(C(=O)C(C)(C)C)=C(COC(C)=O)CS(=O)(=O)[C@H]12` [Compound 51, 3-Acetoxymethyl-4-tert-butylcarbonyl-(7α)-methoxy-3-cephem 1,1-dioxide] the half-life at 10000 µM [1] was 19.3 h, the Ki [2] was 0.011 µM and the koff [2] was 0.0026 s⁻¹. It also gave a kon [2] of 20000 M⁻¹ s⁻¹.

Work on `CO[C@H]1C(=O)N2C(C(=O)OC(C)(C)C)=C(COC(C)=O)CS(=O)(=O)[C@H]12` [Reference] yielded a half-life at 10000 µM [1] of 3.2 h, a Ki [2] of 0.0184 µM and a koff [2] of 0.0035 s⁻¹. For the same compound, the kon [2] was 9000 M⁻¹ s⁻¹.
